In brackets after ≈: the same amount, converted by molar mass.
Tests used:
[1] = Solubility was evaluated at pH 7.4 buffer at 25 degree Centigrade; type: physicochemical
Carbonic anhydrase 2 [2] = molecular target: T1, Carbonic anhydrase 2 (Homo sapiens, UniProt P00918)
Description: Inhibition of human erythrocyte carbonic anhydrase II

Carbonic anhydrase 2 [3] = molecular target: T1, Carbonic anhydrase 2; remark: listed apart in the source
Description: Compound was evaluated for the inhibition of dansylamide at human carbonic anhydrase II

Bos taurus [4] = species on record: Bos taurus
physchem [5] = conditions: water
Description: Solubility was evaluated in water at 25 degree Centigrade

physchem [6] = conditions: 30% ethanol
physchem [7] = conditions: water; remark: listed apart in the source
Bos taurus [8] = species on record: Bos taurus; assay: Percentage binding to bovine iris and ciliary body; type: functional
Bos taurus [9] = species on record: Bos taurus; assay: Percentage binding of bovine ocular pigment; type: functional, Eye
Oryctolagus cuniculus = species on record: Oryctolagus cuniculus; assay: Compound was evaluated for the lowering of the intraocular pressure (IOP) (2%, 3 drops) in ocular normotensive pigmented rabbits; type: functional, Eye
[10] = pKa in water; type: physicochemical

SMILES | IC50 (Carbonic anhydrase 2 [2]) [nM] | Ki (Carbonic anhydrase 2 [3]) [nM] | solubility (physchem [5]) [mg/mL] | pKa (physchem [6]) | pKa (physchem [7]) | pKa [10] | solubility [1] [mg/mL] | Pigment binding (Bos taurus [4]) [%] | Pigment binding (Bos taurus [8]) [%] | Binding (Bos taurus [9]) [%] | IOP lowering (Oryctolagus cuniculus) [mmHg]
NS(=O)(=O)c1cc2cc(CNCc3ccccn3)sc2o1 | 8.2 | 8.2 | 20.4 (≈ 63.1 mM) | 9.08 | 7.02 |  | 16.9 (≈ 52.3 mM) | 69 |  |  | 
COCCN(CCOC)Cc1cc2cc(S(N)(=O)=O)oc2s1 | 5.1 | 2.6 | > 30 | 8.95 | 5.57 |  |  |  | 27 | 26.9 | 3.9
COCCNCc1cc2cc(S(N)(=O)=O)oc2s1 | 11 |  | > 27 | 9.05 |  | 7 | > 27 |  | 73 |  | 
NS(=O)(=O)c1cc2cc(CNCCF)sc2o1 | 12 | 3.4 | > 32 | 9 | 6.55 |  |  | 60 |  |  | 
COCCCNCc1cc2cc(S(N)(=O)=O)oc2s1 | 12 |  | > 34 | 9 | 7.25 |  |  | 78 |  |  | 
CNCc1cc2cc(S(N)(=O)=O)oc2s1 | 9 | 32.3 | > 51 | 9.25 | 7.85 |  |  |  | 77 |  | 
NS(=O)(=O)c1cc2cc(CN3CCOCC3)sc2o1 | 5.6 | 1.24 | > 4.7 | 9.2 |  | 5.32 | 0.97 (≈ 3.21 mM) |  | 25 | 24.8 | 2.5
NS(=O)(=O)c1cc2cc(CNCCCCO)sc2o1 | 11 |  | > 47 | 9.16 | 7.65 |  |  |  |  |  | 

Now from value to compound, other results behind:

IC50 (Carbonic anhydrase 2 [2]) [nM] | Ki (Carbonic anhydrase 2 [3]) [nM] | solubility (physchem [5]) [mg/mL] | pKa (physchem [6]) | pKa (physchem [7]) | pKa [10] | SMILES | solubility [1] [mg/mL] | Pigment binding (Bos taurus [4]) [%] | Pigment binding (Bos taurus [8]) [%] | Binding (Bos taurus [9]) [%] | IOP lowering (Oryctolagus cuniculus) [mmHg]
8 |  | > 22.5 | 9.4 | 7.85 |  | CCCNCc1cc2cc(S(N)(=O)=O)oc2s1 |  |  | 68 |  | 
6.49 | 3.6 |  | 8.85 | 5.55 |  | COCCOCCN(CCOC)Cc1cc2cc(S(N)(=O)=O)oc2s1 |  | 21 |  |  | 
6 | 7.4 | 15.3 (≈ 53.1 mM) | 9.1 | 7.55 |  | CC(C)CNCc1cc2cc(S(N)(=O)=O)oc2s1 |  |  | 73 |  | 
8 |  | 40.8 (≈ 134 mM) | 8.9 |  | 6.85 | CCOCCNCc1cc2cc(S(N)(=O)=O)oc2s1 | 19.7 (≈ 64.7 mM) |  | 75 |  | 
